Laboratory results as given in US6630508B1, “Substituted benzopyrans as selective estrogen receptor β agonists” (Eli Lilly and Company, priority 2002, dated 2003).

Target: T1, ER beta receptor (Homo sapiens, UniProt Q92731)
T1 construct: purchased PanVera
Assay: Competition ER binding assay (3H-Estradiol displacement)
Settings: for Ratio of Ki(nM)ER alpha/Ki(nM) ER beta: selectivity ratio Ki ER alpha / Ki ER beta, Ki from IC50 by Cheng-Prusoff, 3H-Estradiol, ERAlpha or ERbeta Receptor (PanVera)
Method: The competition ER binding assay was run in a buffer containing 50 mM N-[2-hydroxyethyl]piperazine-N′-[2-ethanesulfonic acid (Hepes) pH 7.5, 1.5 mM EDTA, 150 mM NaCl, 10% glycerol, 1 mg/mL ovalbumin, 5 mM DTT, 0.025 μCi per well of ^3H-Estradiol(NEN #NET517 at 118 Ci/mmol, 1 mCi/mL), and 10 ng/well ERAlpha or ERbeta Receptor (PanVera). Competing compounds were added at 10 different concentrations. Non-specific binding was determined in the presence of 1 μM of E2 (17-β Estradiol, Sigma, St. Louis, Mo.). The binding reaction (140 μL) was incubated for 4 hours at room temperature, then 70 μL of cold dextran coated charcoal (DCC) buffer was added to each reaction (DCC buffer was prepared by adding 0.75 g of charcoal[Sigma] and 0.25 g of dextran [Pharmacia] per 50 mL of assay buffer). The incubation plates were mixed for 8 minutes on an orbital shaker at 4° C. and then centrifuged at 3,000 rpm for 10 minutes at 4° C. An aliquot of 120 μl of the mix was transferred to another 96-well, white flat bottom plate (Costar) and 175 μl of Wallac Optiphase Hisafe 3 scintillation fluid was added to each well. The plates were sealed and then shaken vigorously on an orbital shaker. After an incubation of 2.5 hrs, the radioactivity was counted in a Wallac Microbeta counter. […] The Kd for ^3H-Estradiol was determined by saturation binding to ERα and ERβ receptors. The IC50 values for compounds were converted to Ki values using the Cheng-Prusoff equation and the Kd values were determined by saturation binding assay.

T1 sequence (Q92731 whole entry): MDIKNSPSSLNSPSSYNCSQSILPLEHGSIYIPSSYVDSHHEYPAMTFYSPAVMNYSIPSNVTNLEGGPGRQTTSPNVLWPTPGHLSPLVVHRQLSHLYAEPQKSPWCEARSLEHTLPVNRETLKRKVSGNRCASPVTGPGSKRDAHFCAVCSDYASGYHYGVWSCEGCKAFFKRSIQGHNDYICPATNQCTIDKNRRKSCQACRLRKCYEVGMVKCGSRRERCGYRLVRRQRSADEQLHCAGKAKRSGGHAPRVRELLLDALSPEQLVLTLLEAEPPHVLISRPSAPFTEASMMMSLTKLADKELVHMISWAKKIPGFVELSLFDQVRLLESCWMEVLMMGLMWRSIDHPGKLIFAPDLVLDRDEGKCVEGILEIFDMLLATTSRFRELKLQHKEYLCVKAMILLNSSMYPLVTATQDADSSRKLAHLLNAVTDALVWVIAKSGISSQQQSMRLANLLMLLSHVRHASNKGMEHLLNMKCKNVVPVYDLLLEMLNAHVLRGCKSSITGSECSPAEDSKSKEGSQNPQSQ

| activity in the ER binding assay | Ratio of Ki(nM)ER alpha/Ki(nM) ER beta | Compound |
| --- | --- | --- |
| active | 6.9 | Oc1ccc2c(c1)[C@H]1CCC[C@H]1[C@@H](c1ccc(C(F)(F)F)cc1)O2 (racemic) [Example 4, (±)-2-(4-Trifluoromethylphenyl)-6-hydroxy-cyclopentyl[c]3,4-dihydro-2H-1-benzopyran] |
| active | 5.0 | Oc1ccc2c(c1)[C@H]1CCC[C@H]1[C@@H](c1ccc(F)cc1)O2 (racemic) [Example 2, (±)-2-(4-Fluorophenyl)-6-hydroxy-cyclopentyl[c]3,4-dihydro-2H-1-benzopyran] |
| active | 12.6 | Cc1ccc([C@H]2Oc3ccc(O)cc3[C@H]3CCC[C@H]32)cc1 (racemic) [Example 6, (±)-2-(4-Methylphenyl)-6-hydroxy-cyclopentyl[c]3,4-dihydro-2H-1-benzopyran] |
| active | 2.6 | CCc1ccc([C@H]2Oc3ccc(O)cc3[C@H]3CCC[C@H]32)cc1 (racemic) [Example 3, (±)-2-(4-ethylphenyl)-6-hydroxy-cyclopentyl[c]3,4-dihydro-2H-1-benzopyran] |
